The numbers were not newly measured in US20060159622A1, “Pharmacodynamic assay for inhibitors of 11-beta-hydroxysteroid dehydrogenase activity in animal tissues” (priority 2003, published 2006), which cites them from elsewhere.

Molecules are shown by their SMILES.

This series concerns HSD. As to conditions: normal human volunteers.

For `CC1(C)[C@@H](OC(=O)CCC(=O)O)CC[C@]2(C)[C@H]3C(=O)C=C4[C@@H]5C[C@@](C)(C(=O)O)CC[C@]5(C)CC[C@@]4(C)[C@]3(C)CC[C@@H]12` [carbenoxolone], the insulin sensitivity entry is given as “increased insulin sensitivity”.
